{
  "source": "paper PMC4188581",
  "about": "(PLoS ONE, 2014)",
  "key": {"CDK2": {"biological_target": "CDK2 (Homo sapiens, UniProt P24941)", "assay": "Surface Plasmon Resonance (SPR) peptide binding assay", "details": "for Ka1 / Ka2 / Kd1 / Kd2: two-state model", "experimental": "Data were fitted globally by using the standard two state models provided by Biacore T200 Software v2.0.\nSingle-cycle kinetics experiments were performed with a T200 apparatus. The experiments were done on S-CM5 sensor chips coated with 6000 RU of CDK2. A flow cell left blank was used for double-referencing of the sensorgrams. Binding experiments were performed in standard PBS-P buffer with 60 µM ATP as running buffer (10 mM NaH2PO4/Na2HPO4, 150 mM NaCl, 60 µM ATP and 0.05% surfactant P20, pH 7.4) at 25°C with a flow rate of 30 µl/min. The peptide samples were prepared in the running buffer, and were injected.\nSingle-cycle kinetics assay were performed using the standard SCK method implemented by the T200 Control Software. In single-cycle analysis, the analyte is injected with increasing concentrations in a single cycle. The surface is not regenerated between injections. A blank injection of buffer only was subtracted from each curve, and reference sensorgrams were subtracted from experimental sensorgrams to yield curves representing specific binding. Data were fitted globally by using the standard two-state model provided by T200 Software v2.0. The data shown are representative of at least three independent experiments."}, "CDK2/Cyclin E complex": {"biological_target": "T1, CDK2/Cyclin E complex (Homo sapiens, UniProt P24941)", "T1 construct": "endogenous in cells; host or cells: C81 (HTLV-1-infected T-cell line), size-exclusion fractions 28-31 of whole cell lysate", "assay": "Cyclin E immunoprecipitation and Western blot for CDK2 (complex dissociation)", "assay_type": "biochemical", "details": "10 µM peptide, C81 fractionated cell extracts", "protocol": "This is discussed below by the kinase activity experiment.\n(§1) B) Immunoprecipitated Cyclin E samples in the presence of peptides were assessed for kinase activity. Histone H1 (1 µg/reaction) was added to each reaction tube along with 2 µl of (γ-32P) ATP (3000 Ci/mmol). Reactions were incubated at 37°C for 30 min and stopped by the addition Laemmli buffer. The samples were separated on a 4–20% Tris–Glycine gel. Samples were ran on a gel, dried, and exposed to a PhosphorImager cassette and analyzed using Molecular Dynamic’s ImageQuant Software.\nC81 whole cell lysate (5 mg) was fractionated on a Superose 6 HR 10/30 column (Amersham Biosciences, Piscataway, NJ) in Buffer D (20 mM HEPES (pH 7.9), 0.05 M KCl, 0.2 mM EDTA, 0.5 mM PMSF, 0.05 DTT, and 20% Glycerol). Flow-through was collected at 0.5 ml for 50 fractions.\nThe pooled C81 extracts (250 µg each) were combined with 10 µM of each respective peptide. Cyclin E antibody (Santa Cruz, sc-198) was added to each reaction tube (10 µl, 2 µg), the reaction mixture was brought up to 500 µl with TNE50+0.1% NP-40 (100 mM Tris, pH 8.0; 50 mM NaCl; 1 mM EDTA, 0.1% Nonidet P-40) and was allowed to incubate while rotating overnight at 4°C. α-IgG was added to extract as a negative control, and an IP was performed in the absence of competing peptide, acting as a positive control. […]"}, "CDK2/Cyclin complex": {"biological_target": "T2, CDK2/Cyclin complex (Homo sapiens, UniProt P24941)", "T2 construct": "endogenous in cells; host or cells: C81 (HTLV-1-infected T-cell line), size-exclusion fractions 28-31 of whole cell lysate", "assay": "Kinase assay of immunoprecipitated Cyclin E samples with Histone H1", "assay_type": "biochemical", "details": "10 µM peptide, Histone H1 substrate", "protocol": "as §1\nThe levels of phosphorylation of H1 are shown in the presence of the six designed peptides.\nImmunoprecipitated samples were assessed for kinase activity. After the final TNE50+0.1% NP-40 wash, beads were washed with kinase buffer (50 mM HEPES, 10 mM MgCl2, 5 mM MnCl2, 1 mM DTT, 50 mM NaF, 0.2 mM Na3VO4 and one complete tablet of protease cocktail inhibitor/50 ml buffer) to equilibrate the reaction. Histone H1 (1 µg) was added to each reaction tube along with the γ-32P ATP (2 µl at 3000 Ci/mmol). Reactions were incubated at 37°C for 30 min and stopped by the addition of 15 µl Laemmli buffer. The samples were separated by reducing SDS-PAGE on a 4–20% Tris–Glycine gel. Gels were stained with Coomassie blue, destained, and then dried for 2 hours. Following drying, the gels were exposed to a PhosphorImager cassette and analyzed utilizing Molecular Dynamic’s ImageQuant Software."}},
  "note": "Ends that are not written are not given here.",
  "data": [
    {"molecule": "LAALS [LAALS, reference compound]", "values": [
      {"measurement": "Kd", "setting": "CDK2; without ATP", "value": 8, "unit": "µM"}
    ]},
    {"molecule": "CC(C)C[C@H](NC(=O)[C@H](C)NC(=O)[C@H](C)NC(=O)[C@@H](N)CC(=O)O)C(=O)N[C@H](C(=O)O)[C@@H](C)O", "note": "[DAALT, NH2-D-A-A-L-T-OH]", "values": [
      {"measurement": "dissociation of CDK2 from the CDK2/Cyclin complex", "setting": "CDK2/Cyclin E complex", "value": "dissociation of CDK2 from the CDK2/Cyclin complex"},
      {"measurement": "kinase activity (phosphorylation of H1)", "setting": "CDK2/Cyclin complex", "value": "clear loss of kinase activity"},
      {"measurement": "mechanism of binding (SPR response curve)", "setting": "CDK2", "value": "fast binding and fast dissociation"},
      {"measurement": "Ka1", "setting": "CDK2; with 60 µM ATP", "value": "612.9 ± 13.0", "unit": "M⁻¹ s⁻¹"},
      {"measurement": "Ka2", "setting": "CDK2; with 60 µM ATP", "value": "34.6±1.0 E-3 1/Ms"},
      {"measurement": "Kd1", "setting": "CDK2; with 60 µM ATP", "value": "101.2±4.3 E-3 1/s"},
      {"measurement": "Kd2", "setting": "CDK2; with 60 µM ATP", "value": "10.1±0.1 E-3 1/s"},
      {"measurement": "Ka1", "setting": "CDK2; without ATP", "value": "434.1 ± 6.6", "unit": "M⁻¹ s⁻¹"},
      {"measurement": "Ka2", "setting": "CDK2; without ATP", "value": "14.1±0.4 E-4 1/Ms"},
      {"measurement": "Kd1", "setting": "CDK2; without ATP", "value": "23.2±0.4 E-3 1/s"},
      {"measurement": "Kd2", "setting": "CDK2; without ATP", "value": "1.3±0.6 E-5 1/s"}
    ]},
    {"molecule": "CC(C)C[C@H](NC(=O)[C@H](C)NC(=O)[C@H](C)NC(=O)[C@@H](N)Cc1ccc(O)cc1)C(=O)N[C@@H](CCC(N)=O)C(=O)O", "note": "[YAALQ, NH2-Y-A-A-L-Q-OH]", "values": [
      {"measurement": "dissociation of CDK2 from the CDK2/Cyclin complex", "setting": "CDK2/Cyclin E complex", "value": "weak complex disassociation"},
      {"measurement": "kinase activity (phosphorylation of H1)", "setting": "CDK2/Cyclin complex", "value": "clear loss of kinase activity"},
      {"measurement": "mechanism of binding (SPR response curve)", "setting": "CDK2", "value": "fast binding and fast dissociation"},
      {"measurement": "Ka2", "setting": "CDK2; with 60 µM ATP", "value": "12.3±0.3 E-3 1/Ms"},
      {"measurement": "Kd1", "setting": "CDK2; with 60 µM ATP", "value": "53.9±1.4 E-3 1/s"},
      {"measurement": "Kd2", "setting": "CDK2; with 60 µM ATP", "value": "1.6±0.1 E-3 1/s"},
      {"measurement": "Ka2", "setting": "CDK2; without ATP", "value": "9.0±0.3 E-3 1/Ms"},
      {"measurement": "Kd1", "setting": "CDK2; without ATP", "value": "84.0±2.7 E-3 1/s"},
      {"measurement": "Kd2", "setting": "CDK2; without ATP", "value": "2.2±0.1 E-3 1/s"}
    ]}
  ]
}
